The source of these data is patent US11241501B2, “Anticancer prodrug for overcoming drug resistance” (Korea University Research and Business Foundation, priority 2018, dated 2022).

The test system of experiment [1] is MCF7/Dox xenograft tumors. Description: Xenograft tumor study. In kind it is in vivo. Particulars: mice, C1 15 mg/kg/d, Dox 2 mg/Kg/d + DCA 50 mg/Kg/d, once every four days. The method, then:
(§1) Data represent the mean±SD. *p<0.05.
(§2) To assess tumor target specificity and the organ distribution of C1 in vivo and ex vivo, MCF7 and MCF7/Dox cells were injected subcutaneously into mice. When tumor growth reached a detectable size, the mice were treated with C1 (15 mg/kg/d), doxorubicin (2 mg/Kg/d)+DCA (50 mg/Kg/d), or vehicle (DMSO) by i.v. injection once every 4 days for 30 days. After 15 days of treatment, the animals were euthanized via CO2 asphyxiation. The xenograft tumors were excised and photographed. In vivo fluorescence images of the mice were recorded and quantified using a Maestro2 instrument (excitation and emission wavelengths: 500 and 650 nm, respectively). The fluorescence images and auto-fluorescence were then deconvoluted using the software provided with the instrument (Maestro software ver.2.4, CRi, Woburn, Mass., USA) using the multiexcitation spectral analysis function.
(§3) Five-week-old immunodeficient nude mice (nu/nu) mice (Orient Bio, Inc.) were maintained in pressurized ventilated cages under conditions of repeated controlled illumination (12 h dark; 12 h light) with ad libitum access to sterilized water and food (Cat no: 1314Fort, ALTROMIN company, Germany). MCF-7/Dox cells (1×10^7) in […] PBS were injected subcutaneously into each nude mouse. […] Tumor growth was monitored periodically, and the tumor volume (V) was calculated by using V=½× length×(width)^2. […]

Experiment [2] deals with MCF7 xenograft tumors. The experiment is described as follows: Xenograft tumor study. In kind it is in vivo. The note with it: mice, C1 15 mg/kg/d, Dox 2 mg/Kg/d + DCA 50 mg/Kg/d, once every four days. The method, then: as §1, §2, §3
The test system of experiment [3] is cancer cells (A549 and HepG2), normal cells (NHDF and IMR90). Description: Cellular uptake of compounds in normal and cancer cells. Format: cell-based, human. The note with it: 5 μM, 6 h, A549, HepG2 vs NHDF. Here is the method:
Cells were treated with 5 μM of each compound for 6 h. Fluorescence intensities were determined using SpectraMAX 13;
To analyze the cellular fluorescence levels upon compound treatment, cells were seeded in plates 1 day before treatment with the compounds. Cells were then treated with each compound for the indicated dose or time course. After the experiment, cells were washed with ice-cold PBS, trypsinized, and centrifuged. The cell pellet was re-suspended in 300 μL of PBS and then analyzed using a multiplate reader (SpectraMAX I3x). The results were normalized according to the number of cells.

Experiment [4] relates to HepG2 cells. The experiment is described as follows: Confocal intracellular localization with MitoTracker. Particulars: HepG2, 5 μM, 24 hr. Format: cell-based, human. The method, then:
HepG2 cells treated with each compound (5 μM, 24 hr) were co-stained with the mitochondrial marker MitoTracker (green). Boxed regions show co-localization of the test compounds and probe within the mitochondria. […] Experiments were carried out in triplicate and the data shown represent means±SD. **p<0.01. […] HepG2 cells were incubated with BNPP (100 μM) for 2 hr prior to C1 treatment. **p<0.01. […] Cleaved caspase-3 and PARP-1 levels were examined to assess apoptosis induction. C, cleaved.
Cells were seeded on glass chamber slides (Nalgene Nunc) followed by probe treatment. After 48 h, the cells were fixed with 4% formaldehyde, and blocked with 2% bovine serum albumin-PBS for 30 min. The mitochondria were stained using MitoTracker™ Green FM (Invitrogen, USA) for 30 min. Fluorescent images were obtained using a confocal laser scanning microscope (Carl Zeiss MicroImaging, Inc., Germany).

For the compound `COc1cccc2c1C(=O)c1c(O)c3c(c(O)c1C2=O)C[C@@](O)(C(=O)CO)C[C@@H]3OC1C[C@H](NC(=O)OC(Cc2cn(CCCCCC[P+](c3ccccc3)(c3ccccc3)c3ccccc3)nn2)c2ccc(NC(=O)C(Cl)Cl)cc2)[C@H](O)[C@H](C)O1.[Br-]` (stereo partly shown) [C1], the “reduction in the tumor volume” value is reported as about 74% in experiment [1] and “approximately 78%” in experiment [2]. Moreover, the “tumor cell selectivity of cellular uptake” value in experiment [3] was “taken up specifically by cancer cells”. Further, in experiment [4], the “intracellular (mitochondrial) localization” value is recorded as “located predominantly within the mitochondria”.
